Read-outs that look alike come from different tables or passages of the source. *1 amine or outer side, *2 acyl side, *3 side chain or, on linkers, in order; H or OH if unused. Where a SMILES comes first, the peptide text is derived from it. Bridges are numbered along the chain shown (N, C = ends). [ ]: non-standard residue; d: D form. The star is where a group is joined. hTyr(3S-OH,4S-OH,3'-OSO3H) = N[C@H](C(=O)O)[C@H](O)[C@@H](O)c1ccc(O)c(OS(=O)(=O)O)c1; pTerphenylCO(4''-OnC5H11) = CCCCCOc1ccc(-c2ccc(-c3ccc(C(=O)*)cc3)cc2)cc1; Orn(4R-OH,5R-OH) = O=C([C@H](C[C@@H](O)[C@@H](O)N[*:3])N[*:1])[*:2]; hTyr(3S-OH,4S-OH) = N[C@H](C(=O)O)[C@H](O)[C@@H](O)c1ccc(O)cc1; Pro(3S-OH,4S-Me) = C[C@H]1CN[C@H](C(=O)O)[C@H]1O; X1 = CCCCCOc1ccc(-c2cc(-c3ccc(C(=O)*)cc3)no2)cc1; Gln(3R-OH) = NC(=O)C[C@@H](O)[C@H](N)C(=O)O; Hyp = O=C(O)[C@@H]1C[C@@H](O)CN1
Legend:
OATP1B2 = target: T1, OATP1B2 (Mus musculus, UniProt Q9JJL3); experiment: Inhibition of OATP1B2-mediated [3H]EβG uptake in HEK293 cells
T1 sequence (Q9JJL3 1-689): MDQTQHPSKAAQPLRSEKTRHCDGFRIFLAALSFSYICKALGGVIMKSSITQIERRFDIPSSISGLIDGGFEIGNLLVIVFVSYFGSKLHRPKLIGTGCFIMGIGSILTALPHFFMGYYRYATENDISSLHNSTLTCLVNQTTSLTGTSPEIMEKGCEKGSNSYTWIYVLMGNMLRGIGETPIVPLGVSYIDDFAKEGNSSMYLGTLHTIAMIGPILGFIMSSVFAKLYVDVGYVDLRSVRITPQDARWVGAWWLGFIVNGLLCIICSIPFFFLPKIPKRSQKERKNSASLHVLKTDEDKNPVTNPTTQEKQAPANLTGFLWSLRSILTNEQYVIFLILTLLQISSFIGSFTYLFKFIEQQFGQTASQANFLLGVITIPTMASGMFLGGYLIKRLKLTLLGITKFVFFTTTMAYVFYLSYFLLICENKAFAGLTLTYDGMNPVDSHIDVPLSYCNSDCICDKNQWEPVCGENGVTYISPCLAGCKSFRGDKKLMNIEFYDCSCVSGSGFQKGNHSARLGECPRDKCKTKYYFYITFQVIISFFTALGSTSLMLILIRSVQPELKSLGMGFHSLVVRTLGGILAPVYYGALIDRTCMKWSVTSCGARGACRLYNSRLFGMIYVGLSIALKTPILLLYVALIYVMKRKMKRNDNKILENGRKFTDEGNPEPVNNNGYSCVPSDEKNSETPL
Protocol: (§1) In brief, radioactive uptake assays were performed utilizing HEK293 cell lines stably expressing OATP1B1 or OATP1B2, or cells expressing the respective vector control (VC) [17, 18]. […] Cells were cultured in Dulbecco’s Modified Eagle Medium (DMEM; Invitrogen) supplemented with 10% FBS; the media for cells expressing OATP1B1 or VC was supplemented with hygromycin B (25 mg/mL; Invitrogen), and blasticidin (37.5 mg/mL; Biovision).
(§2) For inhibition experiments, cells were seeded in 12- or 24-well plates in phenol red-free media and were incubated at 37 °C for 24 h; cells overexpressing OATP1B1 or VC were incubated with doxycycline (1 µg/mL) for 24 h. Cells were washed with warm PBS and pre-incubated with the indicated concentrations of each potential inhibitor (or an equal volume of vehicle) in phenol red-free DMEM (without FBS and supplements) at 37 °C for 15 min. […] The experiment was terminated by washing three times with ice-cold PBS. Cells were lysed with 1 N NaOH overnight at 4 °C, and the solution was neutralized with 2 M HCl. […] The OATP1B-mediated uptake was calculated by dividing the disintegrations per minute (dpm) from each replicate by the amount of protein (mg) and subtracting the dpm/mg protein in the VC cell line. The OATP1B1-mediated uptake at each concentration of each antifungal drug was then compared with the OATP1B1-mediated uptake when only an equal volume of vehicle (water or DMSO) was added without the antifungal drug.

OATP1B1 [1] = target: T2, OATP1B1 (Homo sapiens, UniProt Q9Y6L6); experiment: Inhibition of OATP1B1-mediated [3H]EβG uptake in HEK293 cells; details: for IC50: 0.2 µM EβG, 15 min pre-incubation + 15 min co-incubation; for OATP1B1 inhibitory potency compared with parent drug itraconazole: EβG uptake
T2 sequence (Q9Y6L6 1-691): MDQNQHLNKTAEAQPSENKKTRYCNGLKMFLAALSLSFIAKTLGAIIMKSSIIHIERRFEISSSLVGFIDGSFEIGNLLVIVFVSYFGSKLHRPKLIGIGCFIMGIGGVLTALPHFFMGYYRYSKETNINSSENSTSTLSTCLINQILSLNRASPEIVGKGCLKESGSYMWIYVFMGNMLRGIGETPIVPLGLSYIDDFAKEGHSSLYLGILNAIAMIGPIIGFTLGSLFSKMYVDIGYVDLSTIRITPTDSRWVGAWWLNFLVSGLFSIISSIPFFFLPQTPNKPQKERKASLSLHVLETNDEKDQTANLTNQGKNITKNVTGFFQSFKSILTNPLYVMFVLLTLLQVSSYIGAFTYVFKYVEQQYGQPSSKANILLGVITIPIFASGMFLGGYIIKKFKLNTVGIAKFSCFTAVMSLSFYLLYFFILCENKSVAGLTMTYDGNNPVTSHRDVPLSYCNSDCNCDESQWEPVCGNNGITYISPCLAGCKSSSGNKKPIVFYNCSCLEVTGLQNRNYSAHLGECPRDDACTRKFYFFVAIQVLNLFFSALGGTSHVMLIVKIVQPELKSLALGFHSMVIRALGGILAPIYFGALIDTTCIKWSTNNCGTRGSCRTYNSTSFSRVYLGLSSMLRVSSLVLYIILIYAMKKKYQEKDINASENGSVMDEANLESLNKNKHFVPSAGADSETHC
Protocol: as §1, §2

OATP1B1 [2] = target: T2, OATP1B1; experiment: In vitro to in vivo extrapolation (FDA basic models: Cmax,ss/IC50 and R value); details: FDA 2020 guidance Equation (2), >1.1 indicates potential to inhibit in vivo
Text: In brief, we utilized the equation Cmax,ss/IC50. To use this equation, we identified the mean total peak concentration at the steady-state of each potential inhibitor (Cmax,ss) from the published literature on the clinical pharmacokinetics of each agent (Supplementary Table S2). We then divided Cmax,ss by the IC50 of the respective agents. (1) CMax,ss/IC50
As indicated by the FDA guidelines, values of >0.1 indicate the potential for a clinically relevant interaction.
To utilize this equation, we used the previously determined Cmax,ss (Supplementary Table S2). Where necessary, the molar weight was used to convert the dose or Cmax,ss to µM. We determined the unbound fraction in plasma (fup) for each drug from publicly available literature. […] As recommended by the FDA guidelines, the fraction absorbed (Fa) and intestinal availability (Fg) were set to 1, fup was set to 1% when reported to be less than 1%, and the absorption constant (ka) was set to 0.1 min^−1 (as a worst-case estimate).

OATP1B1 [3] = target: T2, OATP1B1; experiment: Radioactive uptake and membrane/intracellular fractionation in cells overexpressing OATP1B1 or vector; type: cell-based; design: expressed in transfected cells; details: 0.2 µM EβG or 1 µM venetoclax, 15 min
Protocol: For experiments seeking to directly determine if venetoclax is an OATP1B1 substrate, cells overexpressing OATP1B1 or VC were seeded in six-well plates in phenol red-free DMEM containing 10% FBS and doxycycline (1 µg/mL) for 24 h. […] Cells were then immediately lysed with 1 mL of 1 N NaOH for 4 h on an orbital shaker at room temperature to measure total radioactivity. Alternatively, cells were trypsinized with 200 µL of TrypLE (Thermo Fisher Scientific, Waltham, MA, USA) for 3–5 min, rinsed with 800 µL of ice-cold washing buffer, and ProteoExtract Native Membrane Protein Extraction Kits (EMD Millipore, Burlington, MA, USA) were used to separate membrane and intracellular fractions. Dissociated cells were then transferred to 1.5-mL Eppendorf tubes. For measurement of total radioactivity, cells were neutralized with 500 µL of 2 M HCl after 4 h. For measurement of total radioactivity in the membrane or intracellular fraction, cells were isolated following the manufacturer’s protocol, as we have reported previously; this procedure is based on a differential extraction procedure under non-denaturing conditions.

OATP1B1 [4] = target: T2, OATP1B1; experiment: Competitive counterflow assay with 8-acetoxy-trisulfopyrene; type: cell-based; design: expressed in transfected cells; details: 5 µM ACE; venetoclax 200 µM, cyclosporin A 10 µM, paraformaldehyde 0.5%; 20 min
Protocol: Competitive counterflow assays were performed with 8-acetoxy-trisulfopyrene, an activatable fluorogenic probe for OATP1B1, as described previously. In brief, cells expressing a vector or OATP1B1 were seeded in 96-well opaque plates in phenol-red free DMEM media with 10% FBS and induced with doxycycline for 24 h. On the day of the experiment, the media was removed, and the cells were washed three times with warm PBS. The cells were then incubated for 20 min at 37 °C with 100 µL of 5 µM 8-acetoxypyrene-1,3,6-trisulfonate uptake buffer (ACE; 125 mM NaCl, 4.8 mM KCl, 1.2 mM CaCl2, 1.2 mM KH2PO4, […], 25 mM 2-N-morpholino), ethanesulfonic acid, and 5.6 mM glucose, with the pH adjusted to 5.5). […] The fluorescence was measured at excitation and emission wavelengths of 460 nm and 510 nm, respectively, after 20 min of incubation to control for the number of cells.
The plates were incubated for 20 min at 37 °C. In the final step, the supernatant was removed, and the cells were washed three times with 200 µL ice-cold PBS to stop the reaction. PBS was then removed and 200 µL of 0.1 N NaOH was added to each well to normalize the pH. The fluorescence was measured as described above after another 20 min incubation at room temperature. The levels of cell dye were reported as a percent of the measurement from cells containing ACE alone.

OATP1B1 [5] = system: OATP1B1; design: method as in PMID 27273149; details: previous data, weak inhibition; cited from earlier work
[6] = cited from earlier work
[7] = OATP1B2 IC50, HEK293 cells, 0.2 µM EβG, 15 min pre-incubation + 15 min co-incubation

Molecule	IC50 (OATP1B2; [7])	IC50 (OATP1B1 [1]; OATP1B1 IC50, HEK293 cells)	R value (OATP1B1 [2])	further results
C[C@]12CC[C@@H]3c4ccc(O)cc4CC[C@H]3[C@@H]1CC[C@@H]2O[C@@H]1O[C@H](C(=O)O)[C@@H](O)[C@H](O)[C@H]1O [EβG, Estradiol-17β-D-glucuronide]	–	–	–	Uptake in the intracellular fraction with overexpression of OATP1B1 versus vector (OATP1B1 [3]): significant increases
paraformaldehyde	–	–	–	Effect on fluorescence (cell dye level) in competitive counterflow (OATP1B1 [4]): did not decrease fluorescence
CCCCCOc1ccc(-c2cc(-c3ccc(C(=O)N[C@H]4C[C@@H](O)[C@@H](O)NC(=O)[C@@H]5[C@@H](O)[C@@H](C)CN5C(=O)[C@H]([C@H](O)CC(N)=O)NC(=O)[C@H]([C@H](O)[C@@H](O)c5ccc(O)c(OS(=O)(=O)O)c5)NC(=O)[C@@H]5C[C@@H](O)CN5C(=O)[C@H]([C@@H](C)O)NC4=O)cc3)no2)cc1 [Micafungin] (X1-[Orn(4R-OH,5R-OH)]T[Hyp][hTyr(3S-OH,4S-OH,3'-OSO3H)][Gln(3R-OH)][Pro(3S-OH,4S-Me)]; lactam 1-C)	4.9 µM	2.1 µM	> 1.1	–
CC(=O)N1CCN(c2ccc(OCC3COC(Cn4ccnc4)(c4ccc(Cl)cc4Cl)O3)cc2)CC1 (stereo not shown) [Ketoconazole]	2.2 µM	1.5 µM	–	Fraction Unbound (fup) [6]: 3.2%
CC(=O)C(C)n1ncn(-c2ccc(N3CCN(c4ccc(OC[C@H]5CO[C@](Cn6cncn6)(c6ccc(Cl)cc6Cl)O5)cc4)CC3)cc2)c1=O (stereo partly shown) [Keto-ITZ, keto-itraconazole]	–	–	–	OATP1B1 inhibitory potency compared with parent drug itraconazole (OATP1B1 [1]; HEK293 cells): more potent inhibitors of OATP1B1 than the parent drug; IC50 (OATP1B1 [1]; read-out: OATP1B1 IC50, HEK293 cells): 8.3 µM
CCCCCOc1ccc(-c2ccc(-c3ccc(C(=O)N[C@H]4C[C@@H](O)[C@@H](O)NC(=O)[C@@H]5[C@@H](O)[C@@H](C)CN5C(=O)[C@H]([C@@H](C)O)NC(=O)[C@H]([C@H](O)[C@@H](O)c5ccc(O)cc5)NC(=O)[C@@H]5C[C@@H](O)CN5C(=O)[C@H]([C@@H](C)O)NC4=O)cc3)cc2)cc1 [Anidulafungin] ({pTerphenylCO(4''-OnC5H11)}-[Orn(4R-OH,5R-OH)]T[Hyp][hTyr(3S-OH,4S-OH)]T[Pro(3S-OH,4S-Me)]; lactam 1-C)	–	42 µM	–	–
CO[C@H]1/C=C/O[C@@]2(C)Oc3c(C)c(O)c4c(O)c(c(/C=N/N5CCN(C)CC5)c(O)c4c3C2=O)NC(=O)/C(C)=C\C=C\[C@H](C)[C@H](O)[C@@H](C)[C@@H](O)[C@@H](C)[C@H](OC(C)=O)[C@@H]1C [Rifampin]	2.1 µM	< 3 µM	> 1.1	–

The next lines start with results.

IC50 (OATP1B2; [7])	IC50 (OATP1B1 [1]; OATP1B1 IC50, HEK293 cells)	R value (OATP1B1 [2])	Molecule	further results
> 100 µM	9.2 µM	–	CC[C@H](C)C[C@H](C)CCCCCCCCC(=O)N[C@H]1C[C@@H](O)[C@@H](NCCN)NC(=O)[C@@H]2[C@@H](O)CCN2C(=O)[C@H]([C@H](O)CCN)NC(=O)[C@H]([C@H](O)[C@@H](O)c2ccc(O)cc2)NC(=O)[C@@H]2C[C@@H](O)CN2C(=O)[C@H]([C@@H](C)O)NC1=O [Caspofungin]	–
> 80 µM	1.9 µM	> 1.1	CC[C@@H]([C@H](C)O)n1ncn(-c2ccc(N3CCN(c4ccc(OC[C@@H]5CO[C@@](Cn6cncn6)(c6ccc(F)cc6F)C5)cc4)CC3)cc2)c1=O [Posaconazole]	IC50 (OATP1B2; IC50 (Figure S7, Relative OATP1B2 Function), HEK293 cells expressing OATP1B2, EβG uptake, value printed in figure panel): > 100 µM; IC50 at 15 min (OATP1B2; mouse, HEK293 cells stably expressing OATP1B2, probe [3H]EβG, 0.2 µM, OATP1B2 IC50, HEK293 cells, 0.2 µM EβG, 15 min pre-incubation + 15 min co-incubation): > 20 µM
2.5 µM	2.5 µM	> 1.1	C[C@@H](c1nc(-c2ccc(C#N)cc2)cs1)[C@](O)(Cn1cncn1)c1cc(F)ccc1F [Isavuconazole]	IC50 (OATP1B1 [5]): > 10 µM
> 50 µM	37 µM	–	CCC(C)n1ncn(-c2ccc(N3CCN(c4ccc(OCC5COC(Cn6cncn6)(c6ccc(Cl)cc6Cl)O5)cc4)CC3)cc2)c1=O (stereo not shown) [Itraconazole]	–
> 5000 µM	4100 µM	–	OC(Cn1cncn1)(Cn1cncn1)c1ccc(F)cc1F [Fluconazole]	–
> 2 µM	3.5 µM	–	CC(O)C(C)n1ncn(-c2ccc(N3CCN(c4ccc(OCC5COC(Cn6cncn6)(c6ccc(Cl)cc6Cl)O5)cc4)CC3)cc2)c1=O (stereo not shown) [Hydroxy-ITZ, hydroxy-itraconazole]	OATP1B1 inhibitory potency compared with parent drug itraconazole (OATP1B1 [1]; HEK293 cells): more potent inhibitors of OATP1B1 than the parent drug
0.7 µM	0.31 µM	> 1.1	CC(C)c1nc(CN(C)C(=O)N[C@@H](CCN2CCOCC2)C(=O)N[C@H](CC[C@H](Cc2ccccc2)NC(=O)OCc2cncs2)Cc2ccccc2)cs1 [Cobicistat]	–
> 200 µM	80 µM	–	C[C@@H](c1ncncc1F)[C@](O)(Cn1cncn1)c1ccc(F)cc1F [Voriconazole]	–

Reference: publication PMC9025810, “Interaction of Antifungal Drugs with CYP3A- and OATP1B-Mediated Venetoclax Elimination” (Pharmaceutics, 2022)
